Source: patent publication US11339144B2 (Navitor Pharmaceuticals, Inc., priority 2017, dated 2022)

Experiments:
[1] = biological target: HA-GST-Rheb (GTP-γ-S loaded) activating mTORC1 (Homo sapiens (Human), UniProt Q15382); experiment: Rheb-dependent in vitro kinase assay (Rheb-IVK; LanthaScreen or Western readout); assay type: biochemical; settings: Rheb-dependent in vitro kinase assay; read-out: IVK IC50
Rheb = Rheb (Homo sapiens (Human), UniProt Q15382); experiment: Affinity Selection Mass Spectrometry (ASMS); assay type: binding; settings: affinity (R3/R0) in Affinity Selection Mass Spectrometry assay
Procedure, shortened: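 Affinity selection used 2 μM compound with 60 μM Rheb and 180 μM GDP for 30 min at room temperature. After 10 kDa ultrafiltration washes, protein was denatured in MeCN and bound compound quantified by C18 UPLC with Q-TOF MS, against a no-protein control.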

Sequence of Rheb (Q15382 1-169 limits assumed): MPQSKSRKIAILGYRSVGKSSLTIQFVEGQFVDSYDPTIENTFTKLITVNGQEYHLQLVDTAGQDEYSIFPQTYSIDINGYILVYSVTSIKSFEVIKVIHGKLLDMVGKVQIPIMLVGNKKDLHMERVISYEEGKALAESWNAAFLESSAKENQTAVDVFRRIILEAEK
Sequence of HA-GST-Rheb (GTP-γ-S loaded) activating mTORC1 (Q15382 1-181): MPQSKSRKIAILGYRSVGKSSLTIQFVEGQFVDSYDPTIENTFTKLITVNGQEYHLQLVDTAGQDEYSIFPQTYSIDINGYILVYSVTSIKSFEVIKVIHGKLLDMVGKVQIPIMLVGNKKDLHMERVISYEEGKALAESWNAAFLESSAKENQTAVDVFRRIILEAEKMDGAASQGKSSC

Compound | IC50 [1] [µM] | ASMS (R3/R0) (Rheb)
Clc1ccccc1Sc1cccc2[nH]ccc12 [I-244, 4-(2-chlorophenylthio)-1H-indole] | 10 to 100 | B (an affinity (R3/R0) between 100% and 20%)
CNCc1cc2c(Br)cc(Sc3ccc(Cl)c(Cl)c3)cc2n1Cc1ccc(C(=O)N(C)C)cc1 [I-38] | > 100 | A (an affinity (R3/R0)>100%)
CN(C)C(=O)c1ccc(Cn2c(C(=O)O)cc3c(SCCc4ccc(Cl)c(Cl)c4)cc(SCCc4ccc(Cl)c(Cl)c4)cc32)cc1 [I-16, 4,6-bis(3,4-dichlorophenethylthio)-1-(4-(dimethylcarbamoyl)benzyl)-1H-indole-2-carboxylic acid] | < 10 | B (an affinity (R3/R0) between 100% and 20%)
OCc1nc2cc(OCc3ccccc3)c(Cl)cc2n1Cc1ccc(-c2nnn[nH]2)cc1 [I-437, (1-(4-(1H-tetrazol-5-yl)benzyl)-5-(benzyloxy)-6-chloro-1H-benzo[d]imidazol-2-yl)methanol] | > 3 | C (an affinity (R3/R0)<20%)
O=C(O)Cn1c(C(=O)O)cc2c(Oc3cc(Cl)ccc3Cl)cc(Cl)cc21 [I-162, 1-(Carboxymethyl)-6-chloro-4-(2,5-dichlorophenoxy)-1H-indole-2-carboxylic acid] | 100 to 300 | B (an affinity (R3/R0) between 100% and 20%)
Cn1ccc2c(Oc3ccccc3F)cccc21 [I-267] | > 3 | C (an affinity (R3/R0)<20%)
OCc1nc2cc(Sc3ccc(Cl)cc3Cl)c(Cl)c(Cl)c2[nH]1 [I-358, (6,7-dichloro-5-(2,4-dichlorophenylthio)-1H-benzo[d]imidazol-2-yl)methanol] | 10 to 100 | B (an affinity (R3/R0) between 100% and 20%)
OCc1nc2c(Sc3ccc(Cl)cc3Cl)c(Cl)c(Cl)cc2[nH]1 [I-371, (5,6-dichloro-4-(2,4-dichlorophenylthio)-1H-benzo[d]imidazol-2-yl)methanol] | 10 to 100 | B (an affinity (R3/R0) between 100% and 20%)
O=C(O)c1cc2c(Sc3ccc(Cl)cc3Cl)cc(Cl)cc2[nH]1 [I-157, 6-chloro-4-(2,4-dichlorophenylthio)-1H-indole-2-carboxylic acid] | < 10 | B (an affinity (R3/R0) between 100% and 20%)
CN(C)C(=O)c1ccc(Cn2c(CN)cc3c(Br)cc(Sc4ccc(Cl)c(Cl)c4)cc32)cc1 [I-37] | > 100 | C (an affinity (R3/R0)<20%)
O=C(O)c1cc2c(Sc3cccc(OC(F)(F)F)c3)cc(Cl)cc2[nH]1 [I-126, 6-chloro-4-(3-(trifluoromethoxy)phenylthio)-1H-indole-2-carboxylic acid] | 10 to 100 | B (an affinity (R3/R0) between 100% and 20%)
Cc1ccc(Oc2cc(Cl)cc3[nH]c(C(=O)O)cc23)cc1C(F)(F)F [I-81, 6-chloro-4-(4-methyl-3-(trifluoromethyl)phenoxy)-1H-indole-2-carboxylic acid] | 10 to 100 | B (an affinity (R3/R0) between 100% and 20%)
CN1CCN(c2cccc(-c3nc4cc(Cl)c(Cl)cc4[nH]3)c2)CC1 [I-367] | > 100 | B (an affinity (R3/R0) between 100% and 20%)
O=C(Nc1cccnc1)c1ccc(Cn2c(C(=O)O)cc3c(Br)cc(Oc4ccccc4)cc32)cc1 [I-56, 4-bromo-6-phenoxy-1-(4-(pyridin-3-ylcarbamoyl)benzyl)-1H-indole-2-carboxylic acid] | 10 to 100 | B (an affinity (R3/R0) between 100% and 20%)
Clc1cc2nc(-c3ccncc3)[nH]c2cc1Cl [I-378, 5,6-dichloro-2-(pyridin-4-yl)-1H-benzo[d]imidazole] | 10 to 100 | B (an affinity (R3/R0) between 100% and 20%)
OCc1nc2cc(OCc3ccc(OC(F)(F)F)cc3)c(Cl)c(Cl)c2[nH]1 [I-352, (6,7-dichloro-5-(4-(trifluoromethoxy)benzyloxy)-1H-benzo[d]imidazol-2-yl)methanol] | > 3 | A (an affinity (R3/R0)>100%)
OCc1cc2c(Br)cc(OCCc3ccccc3)cc2[nH]1 [I-236, (4-Bromo-6-phenethoxy-1H-indol-2-yl)methanol] | 10 to 100 | B (an affinity (R3/R0) between 100% and 20%)
Clc1cccc(Sc2cccc3[nH]ccc23)c1 [I-243, 4-(3-chlorophenylthio)-1H-indole] | 10 to 100 | B (an affinity (R3/R0) between 100% and 20%)
OCc1cc2c(Cl)cc(Oc3ccccc3)cc2n1Cc1nn[nH]n1 [I-194, (1-((2H-tetrazol-5-yl)methyl)-4-chloro-6-phenoxy-1H-indol-2-yl)methanol] | 10 to 100 | C (an affinity (R3/R0)<20%)
OCc1cc2c(Oc3ccccc3Cl)cc(Cl)cc2[nH]1 [I-216, (6-chloro-4-(2-chlorophenoxy)-1H-indol-2-yl)methanol] | 10 to 100 | B (an affinity (R3/R0) between 100% and 20%)

Compound | IC50 [1] [µM] | ASMS (R3/R0) (Rheb)
CN(C)CCNC(=O)c1cc2c(Sc3ccc(Cl)cc3Cl)cc(Cl)cc2[nH]1 [I-115, 6-chloro-4-(2,4-dichlorophenylthio)-N-(2-(dimethylamino)ethyl)-1H-indole-2-carboxamide] | 10 to 100 | B (an affinity (R3/R0) between 100% and 20%)
CN(C)C(=O)c1ccc(Cn2c(C(=O)O)cc3c(-c4ccccc4)cc(Sc4ccc(Cl)c(Cl)c4)cc32)cc1 [I-8, 6-(3,4-dichlorophenylthio)-1-(4-(dimethylcarbamoyl)benzyl)-4-phenyl-1H-indole-2-carboxylic acid] | < 10 | A (an affinity (R3/R0)>100%)
O=C(O)c1ccc(Cn2ccc3c(Br)cc(Oc4ccccc4)cc32)cc1 [I-164, 4-((4-bromo-6-phenoxy-1H-indol-1-yl)methyl)benzoic acid] | 10 to 100 | B (an affinity (R3/R0) between 100% and 20%)
Cn1c(C(=O)O)cc2c(Sc3ccc(Cl)cc3)cc(Cl)cc21 [I-207, 6-chloro-4-(4-chlorophenylthio)-1-methyl-1H-indole-2-carboxylic acid] | 10 to 100 | B (an affinity (R3/R0) between 100% and 20%)
OCc1nc2cc(Cl)c(OCc3ccccc3)cc2n1Cc1ccc(-c2nnn[nH]2)cc1 [I-440, (1-(4-(1H-tetrazol-5-yl)benzyl)-6-(benzyloxy)-5-chloro-1H-benzo[d]imidazol-2-yl)methanol] | 10 to 100 | C (an affinity (R3/R0)<20%)
Cn1ccc2c(Sc3ccc(Cl)cc3)cccc21 [I-222] | > 100 | B (an affinity (R3/R0) between 100% and 20%)
CN1CCC(CCNC(=O)c2cc3c(Br)cc(Sc4ccc(Cl)c(Cl)c4)cc3[nH]2)CC1 [I-97] | > 100 | B (an affinity (R3/R0) between 100% and 20%)
Brc1cc(Oc2ccccc2)cc2[nH]ccc12 [I-239, 4-bromo-6-phenoxy-1H-indole] | 10 to 100 | B (an affinity (R3/R0) between 100% and 20%)
CC(C)(C)OC(=O)N1CCN(C(=O)c2ccc(Cn3c(C(=O)O)cc4c(Br)cc(Oc5ccccc5)cc43)cc2)CC1 [I-62] | > 100 | B (an affinity (R3/R0) between 100% and 20%)
Clc1ccc(Sc2cc(Cl)cc3[nH]c(-c4c[nH]c5ncccc45)nc23)cc1 [I-339, 6-chloro-4-(4-chlorophenylthio)-2-(1H-pyrrolo[2,3-b]pyridin-3-yl)-1H-benzo[d]imidazole] | > 3 | B (an affinity (R3/R0) between 100% and 20%)
OCc1nc2c(OC[C@H]3CCCC[C@H]3O)c(Cl)c(Cl)cc2[nH]1 (single isomer, unassigned) [I-389] | > 100 | C (an affinity (R3/R0)<20%)
CC(C)(C)OC(=O)c1ccc(Cn2c(C(=O)O)cc3c(Cl)cc(Sc4ccc(Cl)c(Cl)c4)cc32)cc1 [I-95, 1-(4-(tert-butoxycarbonyl)benzyl)-4-chloro-6-(3,4-dichlorophenylthio)-1H-indole-2-carboxylic acid] | 10 to 100 | B (an affinity (R3/R0) between 100% and 20%)
O=C(NCCn1ccc2ccccc21)c1cc2c(Sc3ccc(Cl)cc3)cc(Cl)cc2[nH]1 [I-131] | > 100 | B (an affinity (R3/R0) between 100% and 20%)
CC(C)(C)OC(=O)c1ccc(Cn2c(-c3ccncc3)nc3cc(Cl)c(Cl)cc32)cc1 [I-374] | > 100 | C (an affinity (R3/R0)<20%)
O=C(O)c1cc2c(-c3ccccc3)cc(Cl)cc2[nH]1 [I-54, 6-chloro-4-phenyl-1H-indole-2-carboxylic acid] | 100 to 300 | C (an affinity (R3/R0)<20%)
Cn1ccc2c(Nc3ccccc3)cccc21 [I-299] | > 100 | C (an affinity (R3/R0)<20%)
CN(C)C(=O)c1ccc(Cn2c(C(=O)O)cc3c(Sc4cccc(OC(F)(F)F)c4)cc(Sc4cccc(OC(F)(F)F)c4)cc32)cc1 [I-19, 1-(4-(dimethylcarbamoyl)benzyl)-4,6-bis(3-(trifluoromethoxy)phenylthio)-1H-indole-2-carboxylic acid] | < 10 | B (an affinity (R3/R0) between 100% and 20%)
Nc1ccc(-c2ccc(Cn3c(C(=O)O)cc4c(Sc5ccc(Cl)cc5Cl)cc(Cl)cc43)cc2)cc1 [I-78, 1-((4′-aminobiphenyl-4-yl)methyl)-6-chloro-4-(2,4-dichlorophenylthio)-1H-indole-2-carboxylic acid] | < 10 | B (an affinity (R3/R0) between 100% and 20%)
Clc1c(Br)cc2nc(-c3ccncc3)[nH]c2c1Cl [I-357] | > 100 | A (an affinity (R3/R0)>100%)
CN(C)C(=O)c1ccc(Cn2c(C(=O)O)cc3c(Br)cc(Sc4ccc(C(F)(F)F)cc4)cc32)cc1 [I-22] | > 100 | B (an affinity (R3/R0) between 100% and 20%)
